From patent publication US20190110971A1, “COMPOSITIONS FOR MANAGING PLAQUE FORMATION” (THE REGENTS OF THE UNIVERSITY OF CALIFORNIA, priority 2016, published 2019)

System: bracket-induced plaque formation (saliva-derived plaques on HA discs with brackets)
Test: in vitro bracket-induced biofilm model system, crystal violet assay
Assay type: cell-based
Conditions: in vitro grown plaques from pooled human saliva, FIG. 5B/5C
Text: These discs were then fitted into 12-well tissue culture plates for the growth of saliva-derived plaques. One unique feature of this system is use of a new culture medium developed by this laboratory (Shi-medium, Tian Y 2010) which allows the biofilm grown in vitro to be very similar to in vivo human plaque.
A mixed pool of human saliva samples was collected from 10 volunteers to develop in vitro grown plaques on the model system developed above. Amino acids and sugar monomers and analogs were selected mostly from the list of FDA Generally Recognized As Safe (GRAS) compounds (http://www.fda.gov/Food/Ingredients PackagingLabeling/GRAS/SCOGS/ default.htm). The anti-biofilm inhibitory function of these chemicals was assayed with a crystal violet assay (Sharma A 2005), as illustrated in FIG. 5A. The compounds with more than 10× inhibitory effects were further investigated.

Structure (SMILES)	inhibitory effects against bracket-induced plaque formation
N=C(N)NCCC[C@H](N)C(=O)O [L-Arg, L-arginine]	strong inhibitory effects
C[C@@H](N)C(=O)O [D-Ala, D-alanine]	strong inhibitory effects
NCCCC[C@@H](N)C(=O)O [D-Lys, D-lysine]	strong inhibitory effects
CC(=O)N[C@H]1C(O)O[C@H](CO)[C@@H](O)[C@@H]1O (stereo partly drawn) [N-acyl-Glucosamine, N-acetylglucosamine]	strong inhibitory effects
NCCCC[C@H](N)C(=O)O [L-Lys, L-lysine]	strong inhibitory effects
C[C@H](O)[C@@H](N)C(=O)O [D-Thr, D-threonine]	strong inhibitory effects
